Laboratory results taken from publication PMC5951806, “Rapid labelling and covalent inhibition of intracellular native proteins using ligand-directed N-acyl-N-alkyl sulfonamide” (Nature Communications, 2018).

What was measured:
Assay in all cases: TMT LC-MSMS of 11-labelled proteins
Format in all cases: cell-based
[1] = target: Stress-70 protein, mitochondrial (HSPA9) (Homo sapiens, UniProt P38646)
[2] = target: Trifunctional enzyme subunit alpha, mitochondrial (HADHA) (Homo sapiens, UniProt P40939)
Trifunctional enzyme subunit alpha, mitochondrial (HADHA), sequence (P40939 37-763): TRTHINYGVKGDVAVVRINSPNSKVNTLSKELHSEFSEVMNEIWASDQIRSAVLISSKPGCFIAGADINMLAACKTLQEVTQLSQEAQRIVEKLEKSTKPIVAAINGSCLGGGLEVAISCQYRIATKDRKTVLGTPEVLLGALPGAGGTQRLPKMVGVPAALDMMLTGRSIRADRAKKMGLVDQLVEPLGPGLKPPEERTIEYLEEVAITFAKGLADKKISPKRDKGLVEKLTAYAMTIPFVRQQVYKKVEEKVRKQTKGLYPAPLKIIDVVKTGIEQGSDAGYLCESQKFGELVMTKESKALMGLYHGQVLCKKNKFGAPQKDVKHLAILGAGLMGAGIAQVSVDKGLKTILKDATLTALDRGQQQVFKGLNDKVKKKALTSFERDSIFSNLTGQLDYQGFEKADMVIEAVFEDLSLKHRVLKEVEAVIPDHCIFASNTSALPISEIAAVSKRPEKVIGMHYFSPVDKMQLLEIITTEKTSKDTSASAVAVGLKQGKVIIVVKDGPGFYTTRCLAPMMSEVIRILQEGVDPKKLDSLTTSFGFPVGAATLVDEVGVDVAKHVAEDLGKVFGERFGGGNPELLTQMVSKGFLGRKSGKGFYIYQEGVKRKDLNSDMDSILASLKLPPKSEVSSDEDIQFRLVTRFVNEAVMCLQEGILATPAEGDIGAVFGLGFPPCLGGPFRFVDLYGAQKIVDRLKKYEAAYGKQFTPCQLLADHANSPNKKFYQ
Trifunctional enzyme subunit alpha, mitochondrial (HADHA), sequence (P55084 34-474 partner): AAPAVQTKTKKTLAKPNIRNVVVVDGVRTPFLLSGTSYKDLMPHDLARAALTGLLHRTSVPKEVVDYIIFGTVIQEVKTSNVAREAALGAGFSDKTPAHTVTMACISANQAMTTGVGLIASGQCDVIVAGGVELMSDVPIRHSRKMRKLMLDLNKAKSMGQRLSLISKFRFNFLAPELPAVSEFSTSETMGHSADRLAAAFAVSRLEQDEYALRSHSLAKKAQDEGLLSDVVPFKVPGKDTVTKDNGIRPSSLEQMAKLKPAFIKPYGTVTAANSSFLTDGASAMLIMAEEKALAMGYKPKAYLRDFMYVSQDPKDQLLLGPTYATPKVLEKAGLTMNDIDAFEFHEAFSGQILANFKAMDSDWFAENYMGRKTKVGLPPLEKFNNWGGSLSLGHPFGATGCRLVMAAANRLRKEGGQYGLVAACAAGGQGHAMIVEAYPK

[3] = target: Heat shock cognate 71 kDa protein (HSPA8) (Homo sapiens, UniProt P11142)
Heat shock cognate 71 kDa protein (HSPA8), sequence (P11142 whole entry): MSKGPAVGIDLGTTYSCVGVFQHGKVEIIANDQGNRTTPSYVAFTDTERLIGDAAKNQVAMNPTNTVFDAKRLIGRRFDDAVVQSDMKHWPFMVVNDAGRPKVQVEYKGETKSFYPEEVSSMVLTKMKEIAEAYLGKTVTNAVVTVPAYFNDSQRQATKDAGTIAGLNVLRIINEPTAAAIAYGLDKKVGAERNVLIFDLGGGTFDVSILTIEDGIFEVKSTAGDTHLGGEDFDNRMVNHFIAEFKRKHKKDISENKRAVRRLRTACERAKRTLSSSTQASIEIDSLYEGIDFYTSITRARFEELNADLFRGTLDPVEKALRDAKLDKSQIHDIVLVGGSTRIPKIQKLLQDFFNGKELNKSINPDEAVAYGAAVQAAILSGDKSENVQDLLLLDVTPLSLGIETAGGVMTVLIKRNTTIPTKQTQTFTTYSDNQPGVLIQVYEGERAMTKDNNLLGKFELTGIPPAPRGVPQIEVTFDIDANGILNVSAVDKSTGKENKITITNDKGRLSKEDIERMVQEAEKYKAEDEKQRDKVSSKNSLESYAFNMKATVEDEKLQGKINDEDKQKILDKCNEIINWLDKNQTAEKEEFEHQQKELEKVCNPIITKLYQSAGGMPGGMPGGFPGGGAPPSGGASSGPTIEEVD

[4] = target: T1, citrate synthase, mitochondrial (CS) (Homo sapiens, UniProt O75390)
T1 sequence (O75390 28-466): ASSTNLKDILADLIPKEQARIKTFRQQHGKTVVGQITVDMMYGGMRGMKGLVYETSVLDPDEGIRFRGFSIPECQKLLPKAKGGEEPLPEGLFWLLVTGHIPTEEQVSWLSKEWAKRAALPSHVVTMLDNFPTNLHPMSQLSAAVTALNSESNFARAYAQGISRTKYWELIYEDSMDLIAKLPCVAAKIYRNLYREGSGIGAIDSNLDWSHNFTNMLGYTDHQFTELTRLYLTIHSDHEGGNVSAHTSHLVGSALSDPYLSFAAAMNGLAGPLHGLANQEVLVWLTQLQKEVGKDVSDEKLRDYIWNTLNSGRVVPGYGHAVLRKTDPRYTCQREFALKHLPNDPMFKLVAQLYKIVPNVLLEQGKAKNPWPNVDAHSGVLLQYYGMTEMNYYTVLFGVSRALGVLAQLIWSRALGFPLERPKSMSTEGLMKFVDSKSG

[5] = sheet Merged, SKBR3 cells, 11 0.5 µM 3 h vs DMSO
[6] = sheet Merged, SKBR3 cells, 11 0.5 µM 3 h vs with PU-H71 10 µM
[7] = sheet Exp1, SKBR3 cells, 11 0.5 µM 3 h vs DMSO
[8] = sheet Exp1, SKBR3 cells, 11 0.5 µM 3 h vs with PU-H71 10 µM

Stress-70 protein, mitochondrial (HSPA9), sequence (P38646 47-679): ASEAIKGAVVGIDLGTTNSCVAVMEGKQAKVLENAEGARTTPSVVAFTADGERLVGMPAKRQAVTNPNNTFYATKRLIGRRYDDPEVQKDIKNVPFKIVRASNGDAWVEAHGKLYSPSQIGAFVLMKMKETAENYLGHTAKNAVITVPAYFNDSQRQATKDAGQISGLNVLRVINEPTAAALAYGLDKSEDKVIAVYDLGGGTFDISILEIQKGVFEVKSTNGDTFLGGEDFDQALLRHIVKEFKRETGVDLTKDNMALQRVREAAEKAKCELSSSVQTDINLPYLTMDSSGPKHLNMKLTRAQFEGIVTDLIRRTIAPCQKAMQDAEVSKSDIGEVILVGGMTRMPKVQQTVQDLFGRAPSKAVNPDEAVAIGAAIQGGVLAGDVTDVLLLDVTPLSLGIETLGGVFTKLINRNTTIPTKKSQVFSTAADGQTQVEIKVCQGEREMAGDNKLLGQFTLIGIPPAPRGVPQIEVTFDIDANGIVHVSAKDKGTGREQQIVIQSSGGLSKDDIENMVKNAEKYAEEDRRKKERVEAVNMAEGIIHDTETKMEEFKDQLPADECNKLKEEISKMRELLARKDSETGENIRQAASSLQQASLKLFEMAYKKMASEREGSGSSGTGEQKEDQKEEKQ

## CC(=O)Oc1ccc2c(c1)Oc1cc(OC(C)=O)ccc1C21OC(=O)c2cc(C(=O)NCCOCCOCCNC(=O)CCCC(=O)N(CC#N)S(=O)(=O)c3ccc(C(=O)NCCCn4c(Sc5cc6c(cc5I)OCO6)nc5c(N)ncnc54)cc3)ccc21 [compound 11]
[1]; Exp3, HSPA9
  Abundance Ratio: (11) / (11 with PU-H71): 0.949
  Abundance Ratio: (11) / (DMSO): 2.217
  Abundances (Grouped): 11: 31.7
[1]; Exp3, HSPA9, with PU-H71
  Abundances (Grouped): 11 with PU-H71: 33.4
[1]; [5]
  Abundance Ratio: (11) / (DMSO): 2.217
[1]; [6]
  Abundance Ratio: (11) / (11 with PU-H71): 0.949
[2]; Exp3, HADHA
  Abundance Ratio: (11) / (11 with PU-H71): 0.887
  Abundance Ratio: (11) / (DMSO): 5.561
  Abundances (Grouped): 11: 1575.4
  Abundances (Grouped): 11 with PU-H71: 1776.8
[2]; [7]
  Abundance Ratio: (11) / (DMSO): 7.409
[2]; [8]
  Abundance Ratio: (11) / (11 with PU-H71): 0.838
[2]; sheet Exp2, HADHA
  Abundance Ratio: (11) / (11 with PU-H71): 0.82
  Abundance Ratio: (11) / (DMSO): 5.216
  Abundances (Grouped): 11: 1189.7
  Abundances (Grouped): 11 with PU-H71: 1451.4
[2]; [5]
  Abundance Ratio: (11) / (DMSO): 7.058
[2]; [6]
  Abundance Ratio: (11) / (11 with PU-H71): 0.838
[3]; Exp3, HSPA8
  Abundance Ratio: (11) / (11 with PU-H71): 1.213
  Abundance Ratio: (11) / (DMSO): 3.219
  Abundances (Grouped): 11: 407.2
  Abundances (Grouped): 11 with PU-H71: 335.6
[3]; [7]
  Abundance Ratio: (11) / (DMSO): 3.395
[3]; [8]
  Abundance Ratio: (11) / (11 with PU-H71): 1.175
[3]; sheet Exp2, HSPA8
  Abundance Ratio: (11) / (11 with PU-H71): 1.256
  Abundance Ratio: (11) / (DMSO): 4.511
  Abundances (Grouped): 11: 471.4
  Abundances (Grouped): 11 with PU-H71: 375.4
[3]; [5]
  Abundance Ratio: (11) / (DMSO): 3.381
[3]; [6]
  Abundance Ratio: (11) / (11 with PU-H71): 1.191
[4]; sheet Exp2, CS
  Abundance Ratio: (11) / (11 with PU-H71): 0.812
  Abundance Ratio: (11) / (DMSO): 1.581
  Abundances (Grouped): 11: 26.4
[4]; sheet Exp2, CS, with PU-H71
  Abundances (Grouped): 11 with PU-H71: 32.5
[4]; [5]
  Abundance Ratio: (11) / (DMSO): 1.555
[4]; [6]
  Abundance Ratio: (11) / (11 with PU-H71): 0.796
